How the values were obtained:
CDK19/CycC = CDK19/CycC (Homo sapiens, UniProt Q9BWU1); experiment: LanthaScreen europium kinase binding assay (FRET displacement), CDK19; settings: for CDK19 Selectivity: CDK19/CDK8 selectivity based on IC50 values; for IC50: his-tagged CDK19/CycC 5 nM, tracer 10 nM, 3 h incubation
In short: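 His-tagged CDK19/CycC (5 nM) preincubated 30 min with 10 nM Alexa Fluor 665 ATP-site tracer, 2 nM biotin anti-his antibody and 2 nM europium-streptavidin, then titrated with compound (10^−4.5 to 10^−8 M). TR-FRET (ex 317, em 620/665 nm) read after 3 h at room temperature; duplicates, three independent runs, DMSO-normalized IC50.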

[1] = system: human foreskin fibroblast 2088 cells; experiment: Cell death assay in normal fibroblasts (LD50); assay type: cell-based; settings: FIG. 1B
Description: (§1) Triple-Negative Breast Cancer Cell Death Assay to Measure LD50: The efficacy and selectivity of the disclosed compounds was evaluated in a TNBC cell line assay (MDA-MB-231) and/or human foreskin fibroblast 2088 cells, as was protein binding to human serum and microsomal stability of the disclosed compounds, as described herein.
(§2) Cells from a TNBC cell line (MDA-MB-231) (approximately 100,000 cells) and/or human foreskin fibroblast 2088 cells were seeded into each well of a 6-welled polystyrene treated tissue culture plate and were allowed to attach for 18 h before treatment with the test compound. Cells were then treated every 24 h with a fresh batch of media containing the test compound at one of the respective concentration(s) (Log10 Molar [C]): −5.0, −5.5, −6.0, −6.5, −7.0, −7.5 so that a complete dose-response could be calculated.
(§3) After 48 h of treatment, adherent cells were fixed with a 4% paraformaldehyde solution and stained with Hoechst 33342 nuclear dye (5 μg/mL). Each well was imaged at 10× magnification on a Keyence BZ-X710 microscope and live cell counts were performed in triplicate for each condition using automated ImageJ computational software. LD50 values represent the percentage of live cells after treatment with the test compound, which was calculated after normalization to the DMSO only treated control group.

CDK8 = CDK8 (Homo sapiens, UniProt P49336); experiment: LanthaScreen europium kinase binding assay (FRET displacement), CDK8
MDA-MB-231 TNBC cells = experiment: Triple-negative breast cancer cell death assay (LD50); assay type: cell-based; settings: MDA-MB-231, 48 h treatment, live cell counts normalized to DMSO
Description: as §1, §2, §3

[2] = Liver microsome stability assay (Cyprotex), mouse; assay type: in vitro ADME; settings: mouse liver microsomes
Description: (§4) Microsome Assay to Measure Stability: The stability of the compounds was evaluated using a liver cell microsome assay commercially available from Cyprotex (Watertown, MA) (https://www.cyprotex.com/admepk/in-vitro-metabolism/microsomal-stability).

[3] = Liver microsome stability assay (Cyprotex), human; assay type: in vitro ADME; settings: human liver microsomes
Description: as §4

Chain of CDK19/CycC (Q9BWU1 whole entry): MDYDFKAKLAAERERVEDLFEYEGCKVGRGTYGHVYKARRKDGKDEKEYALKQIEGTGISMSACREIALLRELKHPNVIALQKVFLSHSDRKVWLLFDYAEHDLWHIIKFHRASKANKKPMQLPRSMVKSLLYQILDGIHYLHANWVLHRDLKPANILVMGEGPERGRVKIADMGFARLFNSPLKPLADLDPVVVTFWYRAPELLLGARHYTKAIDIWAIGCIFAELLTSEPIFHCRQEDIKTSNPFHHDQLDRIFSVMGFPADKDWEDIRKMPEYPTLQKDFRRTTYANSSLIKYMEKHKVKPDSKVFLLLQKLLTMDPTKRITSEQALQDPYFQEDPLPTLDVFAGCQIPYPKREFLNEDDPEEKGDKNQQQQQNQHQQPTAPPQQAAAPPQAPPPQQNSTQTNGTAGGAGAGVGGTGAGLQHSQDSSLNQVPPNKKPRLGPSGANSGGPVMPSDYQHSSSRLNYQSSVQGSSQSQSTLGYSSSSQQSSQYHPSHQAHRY
Chain of CDK19/CycC (P24863 whole entry partner): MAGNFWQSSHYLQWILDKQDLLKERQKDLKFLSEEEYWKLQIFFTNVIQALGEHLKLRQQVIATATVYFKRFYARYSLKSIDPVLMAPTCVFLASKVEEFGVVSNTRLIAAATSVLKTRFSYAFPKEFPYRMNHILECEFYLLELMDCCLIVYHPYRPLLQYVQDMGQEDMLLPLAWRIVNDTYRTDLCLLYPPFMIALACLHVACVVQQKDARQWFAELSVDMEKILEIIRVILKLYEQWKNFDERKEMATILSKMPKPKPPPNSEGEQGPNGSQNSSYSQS
Chain of CDK8 (P49336 whole entry): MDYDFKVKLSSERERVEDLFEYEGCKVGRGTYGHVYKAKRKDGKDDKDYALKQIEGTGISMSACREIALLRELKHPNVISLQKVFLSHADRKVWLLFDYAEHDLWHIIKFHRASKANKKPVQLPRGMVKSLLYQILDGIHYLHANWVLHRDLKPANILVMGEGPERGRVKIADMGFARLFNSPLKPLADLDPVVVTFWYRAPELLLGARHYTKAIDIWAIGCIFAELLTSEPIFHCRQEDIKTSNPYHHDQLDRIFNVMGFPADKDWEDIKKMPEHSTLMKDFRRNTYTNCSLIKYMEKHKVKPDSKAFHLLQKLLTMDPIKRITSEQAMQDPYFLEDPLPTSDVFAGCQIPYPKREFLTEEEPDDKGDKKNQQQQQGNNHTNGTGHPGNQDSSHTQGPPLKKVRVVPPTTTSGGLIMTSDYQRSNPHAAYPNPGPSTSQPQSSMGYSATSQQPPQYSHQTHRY
Chain of CDK8 (P24863 whole entry partner): as the sequence (P24863 whole entry partner) above

| Structure (SMILES) | CDK19 Selectivity (CDK19/CycC) | IC50 (CDK19/CycC) [nM] | concentration at which significant fibroblast cell death was observed [1] | IC50 (CDK8) [nM] | MDA LD50 (MDA-MB-231 TNBC cells) [nM] | Mouse Microsome Stability [2] [μL/min/mg protein] | Human Microsome Stability [3] [μL/min/mg protein] |
| --- | --- | --- | --- | --- | --- | --- | --- |
| CNC(=O)c1cc(Nc2cnc(Nc3ccc(CC(C)C)cc3)nc2)ccn1 [Compound A47] | 2.4 | 308 | 10,000 nM | 737 |  |  |  |
| CC(C)Cc1ccc(Nc2ncc(Nc3ccnc4ccccc34)cn2)cc1 [Compound A11] | 0.9 | 25 |  | 22 | 180 | 31.3 | 28.7 |
| CC(C)Cc1ccc(Nc2ncc(Nc3ccncc3OC3CCCC3)cn2)cc1 [Compound A53] | ≥22 | ≤ 2.5 |  | 56 | 91 | 19 | 36 |
| Cc1cnccc1Nc1cnc(Nc2ccc(CC(C)C)cc2)nc1 [Compound A21] | 15 | 38 |  | 564 | 178 | 93.0 | 159.0 |
| c1cc(Nc2cnc(Nc3ccc(C4CCC4)cc3)nc2)ccn1 [Compound A39] | 2 | 9.5 |  | 19 | 158 | 38.6 | 7.6 |
